# Several values for one entry are separate records, joined by “and”; a condition that tells them apart may be missing. Equal entries are not always repeated. Toxic doses and inconclusive results are not listed.
# Test system: BDF1 mice, P388 leukemia ip, median survival T/C
# Experiment: NCI In Vivo Anticancer Drug Screen. Data for tumor model P388 Leukemia (intraperitoneal) in B6D2F1 (BDF1) mice
# Conditions: endpoint: median survival time, higher = longer survival
# In short: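 Antitumour effect was judged in vivo: survival in drug-treated mice, normalised to that of vehicle-dosed controls, gives the reported T/C.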
smiles,measurement,setting,value
CCCCCC(O)C1C(=O)OC(C)C(O)/C=C/C=C/C=C/C=C\C=C(\C)C(O)CC(O)CC(O)CC(O)CC(O)CC(O)CC1O (stereo not given),T/C,"dose: 2.5 mg/kg/injection, schedule: Q01DX009 (ip), vehicle: saline",111 % of control
same,T/C,"dose: 5.0 mg/kg/injection, schedule: Q01DX009 (ip), vehicle: Klucel (hydroxypropylcellulose) (HPC)",95 % of control
same,T/C,"dose: 10.0 mg/kg/injection, schedule: Q01DX009 (ip), vehicle: Klucel (hydroxypropylcellulose) (HPC)",105 % of control
same,T/C,"dose: 20.0 mg/kg/injection, schedule: Q01DX009 (ip), vehicle: Klucel (hydroxypropylcellulose) (HPC)",90 % of control
CC(=O)N(C)C,T/C,"dose: 300.0 mg/kg/injection, schedule: Q01DX010 (ip), vehicle: saline",104 % of control
same,T/C,"dose: 600.0 mg/kg/injection, schedule: Q01DX010 (ip), vehicle: saline",104 % of control
same,T/C,"dose: 1200.0 mg/kg/injection, schedule: Q01DX010 (ip), vehicle: saline",119 % of control
same,T/C,"dose: 2400.0 mg/kg/injection, schedule: Q01DX010 (ip), vehicle: saline",119 % of control
same,T/C,"dose: 3600.0 mg/kg/injection, schedule: Q01DX010 (ip), vehicle: saline",168 % of control
O=P(c1ccccc1)(N1CC1)N1CC1,T/C,"dose: 7.5 mg/kg/injection, schedule: Q01DX009 (ip), vehicle: saline",109 % of control
same,T/C,"dose: 15.0 mg/kg/injection, schedule: Q01DX009 (ip), vehicle: saline",123 % of control
same,T/C,"dose: 30.0 mg/kg/injection, schedule: Q01DX009 (ip), vehicle: saline",119 % of control
COc1ccc(C(=O)C(C)C=O)c(OCc2ccccc2)c1OC (stereo not given),T/C,"dose: 100.0 mg/kg/injection, schedule: Q01DX009 (ip), vehicle: saline with Tween-80",95 % of control
same,T/C,"dose: 100.0 mg/kg/injection, schedule: Q04DX003 (ip), vehicle: saline with Tween-80",104 % of control
same,T/C,"dose: 200.0 mg/kg/injection, schedule: Q01DX009 (ip), vehicle: saline with Tween-80",113 % of control
same,T/C,"dose: 200.0 mg/kg/injection, schedule: Q04DX003 (ip), vehicle: saline with Tween-80",113 % of control
same,T/C,"dose: 400.0 mg/kg/injection, schedule: Q04DX003 (ip), vehicle: saline with Tween-80",90 % of control
Cc1cc(C)[n+](C)c2cc3ccccc3cc12,T/C,"dose: 50.0 mg/kg/injection, schedule: Q01DX005 (ip), vehicle: saline with Tween-80",155 % of control
O=C(NP(=O)(N1CC1)N1CC1)c1cc(I)ccc1I,T/C,"dose: 1.0 mg/kg/injection, schedule: Q01DX001 (oral), vehicle: saline",102 % of control
same,T/C,"dose: 1.0 mg/kg/injection, schedule: Q01DX009 (ip), vehicle: saline with Tween-80",110 % of control
same,T/C,"dose: 1.0 mg/kg/injection, schedule: Q01DX009 (ip), vehicle: saline",104 % of control and 202 % of control
same,T/C,"dose: 2.0 mg/kg/injection, schedule: Q01DX001 (oral), vehicle: saline",100 % of control
same,T/C,"dose: 2.0 mg/kg/injection, schedule: Q01DX009 (ip), vehicle: saline with Tween-80",101 % of control
same,T/C,"dose: 4.0 mg/kg/injection, schedule: Q01DX001 (oral), vehicle: saline",101 % of control
same,T/C,"dose: 4.0 mg/kg/injection, schedule: Q01DX009 (ip), vehicle: saline with Tween-80",105 % of control
same,T/C,"dose: 4.0 mg/kg/injection, schedule: Q01DX009 (ip), vehicle: saline",96 % of control and 222 % of control
same,T/C,"dose: 8.0 mg/kg/injection, schedule: Q01DX001 (oral), vehicle: saline",113 % of control
same,T/C,"dose: 8.0 mg/kg/injection, schedule: Q01DX009 (ip), vehicle: saline",232 % of control and 150 % of control
same,T/C,"dose: 16.0 mg/kg/injection, schedule: Q01DX001 (oral), vehicle: saline",113 % of control
same,T/C,"dose: 16.0 mg/kg/injection, schedule: Q01DX009 (ip), vehicle: saline with Tween-80",214 % of control
same,T/C,"dose: 16.0 mg/kg/injection, schedule: Q01DX009 (ip), vehicle: saline",177 % of control and 191 % of control
same,T/C,"dose: 32.0 mg/kg/injection, schedule: Q01DX009 (ip), vehicle: saline with Tween-80",177 % of control
same,T/C,"dose: 32.0 mg/kg/injection, schedule: Q01DX009 (ip), vehicle: saline",93 % of control and 207 % of control
same,T/C,"dose: 64.0 mg/kg/injection, schedule: Q01DX001 (oral), vehicle: saline",150 % of control
same,T/C,"dose: 64.0 mg/kg/injection, schedule: Q01DX009 (ip), vehicle: saline with Tween-80",112 % of control
same,T/C,"dose: 128.0 mg/kg/injection, schedule: Q01DX009 (ip), vehicle: saline",123 % of control
same,T/C,"dose: 256.0 mg/kg/injection, schedule: Q01DX001 (oral), vehicle: saline",161 % of control
CCCCCCCCCCC(CCCCCCCCCC)CCCCCCCCC(CCCCCCCCCC)CCCCCCCCCC,T/C,"dose: 100.0 mg/kg/injection, schedule: Q04DX003 (ip), vehicle: Klucel (hydroxypropylcellulose) (HPC)",108 % of control
same,T/C,"dose: 200.0 mg/kg/injection, schedule: Q04DX003 (ip), vehicle: Klucel (hydroxypropylcellulose) (HPC)",93 % of control
same,T/C,"dose: 400.0 mg/kg/injection, schedule: Q04DX003 (ip), vehicle: Klucel (hydroxypropylcellulose) (HPC)",97 % of control

# — PubChem BioAssay AID328 (DTP/NCI, 2004)
